From patent US20240279233A1, “MACROCYCLIC TAK1 INHIBITORS” (Aqilion AB, priority 2021, published 2024) come the findings set out here.

Molecules are shown by their SMILES. Converted amounts (≈) assume the structure as drawn. Where two headings read alike, the source gives them in different places.

One may read the IC50 as the point on the concentration scale where inhibition reaches its midpoint. In general, solubility refers to how much of the substance goes into solution per volume. High values mean a readily soluble substance, low ones a poorly soluble substance.

The conditions of series [1]: amide bond, 14-membered ring.
The target of series [2] is human recombinant TAK1-TAB1 Kinase (TAK1 (1-303) and TAB1 (437-end)) (Homo sapiens (Human), UniProt O43318). Briefly: TAK1 biochemical ADP-Glo kinase assay. To be noted: MBP substrate. In outline: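 Inhibition of human recombinant TAK1-TAB1 kinase was measured with a Promega ADP-Glo luminescence assay in 384-well plates. Compounds in 5% DMSO were pre-incubated 10 min with 2 μl TAK1-TAB1 (7.5 ng/μl) in buffer of Tris pH 7.5, MgCl2, DTT and BSA. MBP substrate and ATP were then added for 1 hour at room temperature. ADP-Glo reagent and kinase detection substrate followed, luminescence was read on an Envision, and IC50 came from non-linear regression.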
In general terms: ADP-Glo turns the ADP formed in a reaction into a luminescent signal.

Series [3] has as its system phosphorylated p38 (TAK1 activity) in THP-1 cells. Briefly: Cell-based p38 phosphorylation assay (Western blot). To be noted: PMA-differentiated THP-1 cells, compound 30 minutes then 200 ng/ml LPS 30 minutes. The method, then:
The cellular activity of example compounds 2, 3 and 9 and the comparative example (i.e. takinib) for inhibiting TAK1 activity was evaluated using an in vitro functional cell assay.
THP-1 cells were incubated at 37° C. in 5% CO2. THP-1 cells were cultured in RPMI 1640, 10% FBS, 1% Penicillin-Streptomycin.
THP-1 cells were treated with 100 nM phorbol 12-myristate 13-acetate (PMA) to induce macrophage differentiation and seeded at the density of 1×10^6 cells/well (2 ml/well in a 6-well plate) for 72 hours. The cell culture media was then replaced with PMA-free media and incubated for further 48 hours. Test compounds were prepared as 200×final assay concentration stocks in DMSO (final concentrations in the assay were 10-0.03 μM in 0.5% DMSO, details provided below). Following THP-1 cell differentiation, cells were treated with different concentrations of the control compound NG25 (CAS No.:1315355-93-1, Tan L, et al. J Med Chem. 2015, 58(1), 183-96) or test compounds (10 μl/well) for 30 minutes followed by 200 ng/ml LPS for 30 minutes.
Test items were kept as 10 mM stock solutions in 100% DMSO. The serial dilution of compounds was prepared as 200× serial dilutions of desired final concentration in […] to reach 0.5% DMSO working solution (see Table 3 below).
Dilution series of compounds from 10 μM final highest concentration to 0.03 μM final low concentration were first made in DMSO (see Table 3), 10 μl of each dilution was mixed into 2 ml of cell cultures (0.5% DMSO per well).
10 μl of DMSO was added to the control. All plates were incubated at 37° C., 5% CO2 for 30 minutes and LPS was added to a final concentration of 200 ng/ml.
For Western blot analysis, cells were lysed (50 mM Tris, 150 mM NaCl, 1 mM EDTA, 1% Triton-X100, 1 mM DTT, complete protease and PhosStop phosphatase inhibitor) after indicated treatment and run on NuPAGE Bis-Tris gel 4-12% gradient (Invitrogen). Following transfer to PVDF membrane and blocking in 5% BSA in PBST, membranes were incubated with primary antibody overnight (specific for phosphorylated p38; Cell Signaling, 1:1,000 dilution). After incubation with species-specific secondary antibodies for 1 hour at room temperature, the membranes were visualized with the ECL SuperSignal™ West Pico PLUS Chemiluminescent Substrate (Thermo Scientific). The images were captured with iBright Western Blot Imaging Systems (Invitrogen) and quantified with ImageJ software (Java-based image processing program developed at the National Institutes of Health and the Laboratory for Optical and Computational Instrumentation). Anti-β-actin antibodies were used as the loading control for whole-cell extracts in all samples (anti-β actin; Sigma-Aldrich, 1:5000 dilution, 1 hour incubation).
For immunoblotting, cells were lysed directly in six-well plates by incubating for 30 min at 4° C. in 60 μl Triton lysis buffer. The lysates were centrifuged for 15 minutes at 13,000×g at 4° C. Equal amount of protein from each supernatants were resuspended with 5× sample buffer. Samples were boiled for 10 minutes and then resolved by 4-12% SDS-PAGE (100 V). Proteins were transferred from gel to PVDF membranes ([…] pore size) following the recommended setting (90 minutes, 85 V). […]
On the technique in general: In western blotting, separated proteins are transferred to a membrane and probed.

Series [4] in a line: Solubility assay in phosphate buffer. To be noted: phosphate buffer, pH 7.4, aqueous buffer, kinetic from dmso stock, Solubility (μM), phosphate buffer 100 mM, pH 7.4, room temperature, 20-24 h, LC-UV.
Procedure: The aqueous solubility of selected example compounds was determined as follows; 6 μL of DMSO stock solution of the selected example was added to 594 μL phosphate buffer (100 mM, pH 7.4). The resulting mixture was equilibrated over night (20-24 h, Alligator Shaker, room temperature). The mixture was then filtered (Millex LH 0.45 μm) and the concentration/solubility was determined by LC-UV quantification.
The conditions of series [5]: amide bond, 14-membered ring. This is another data set of the same source.
Where [6] appears, read: 10 μM ATP, read-out: TAK1 Mean IC50 (nM) @ 10 μM ATP.
The mark [7] stands for this setting: 1 mM ATP, read-out: TAK1 Mean IC50 (nM) @ 1 mM ATP.

Sequence of human recombinant TAK1-TAB1 Kinase (TAK1 (1-303) and TAB1 (437-end)) (O43318 other isoform, or with tags, fused parts or gaps): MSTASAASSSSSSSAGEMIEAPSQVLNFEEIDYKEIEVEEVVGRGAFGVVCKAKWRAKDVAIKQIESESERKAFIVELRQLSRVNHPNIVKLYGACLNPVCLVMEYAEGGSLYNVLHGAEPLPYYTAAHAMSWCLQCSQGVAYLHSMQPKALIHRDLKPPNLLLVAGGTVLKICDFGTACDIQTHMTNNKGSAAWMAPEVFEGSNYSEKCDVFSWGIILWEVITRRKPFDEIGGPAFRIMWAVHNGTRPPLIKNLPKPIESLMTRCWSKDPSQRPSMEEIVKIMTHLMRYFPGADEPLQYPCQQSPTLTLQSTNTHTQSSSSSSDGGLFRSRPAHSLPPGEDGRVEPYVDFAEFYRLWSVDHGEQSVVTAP

`C#Cc1cccc2nc3n(c12)[C@@H](C)CCCCNC(=O)c1cccc(c1)C(=O)N3` gave a ring closure, isolated yield in series [1] (from C#Cc1cccc2nc(NC(=O)c3cccc(C(=O)O)c3)n([C@@H](C)CCCCN)c12, TCFH/NMI, MeCN/DMF, 0.82 mM, 0.0 °C, 4.0 h) of 73%.

In turn, `CC1CCCCNC(=O)c2cccc(c2)C(=O)Nc2nc3cccc(N4CCCC4=O)c3n21` (stereo not drawn) showed a ring closure, isolated yield in series [1] (from CC(CCCCN)n1c(NC(=O)c2cccc(C(=O)O)c2)nc2cccc(N3CCCC3=O)c21, TCFH/NMI, DMF/MeCN, 4.2 mM, 25.0 °C, 2.5 h) of 7.7%.

For `CCOC(=O)c1cnc(Cl)c2nc3n(c12)[C@@H](C)CCCCNC(=O)c1cccc(c1)C(=O)N3`, in series [1] (from CCOC(=O)c1cnc(Cl)c2nc(NC(=O)c3cccc(C(=O)O)c3)n([C@@H](C)CCCCN)c12, TCFH/NMI, MeCN/DMF, 1.29 mM, 0.0 °C, 4.0 h), the ring closure, isolated yield is 49%.

Take `COC(=O)c1cc(Br)cc2nc3n(c12)[C@@H](C)CCCCNC(=O)c1cccc(c1)C(=O)N3`: in series [1] (from COC(=O)c1cc(Br)cc2nc(NC(=O)c3cccc(C(=O)O)c3)n([C@@H](C)CCCCN)c12, TCFH/NMI, DMF/MeCN, 1.4 mM, 0.0 °C, 16.0 h), the ring closure, isolated yield is 30%.

In series [1] (from C[C@@H](CCCCN)n1c(NC(=O)c2cccc(C(=O)O)c2)nc2ccnc(Cl)c21, TCFH/NMI, DMF/MeCN, 0.6 mM, 25.0 °C, 3.0 h), `C[C@H]1CCCCNC(=O)c2cccc(c2)C(=O)Nc2nc3ccnc(Cl)c3n21` showed a ring closure, isolated yield of 20%.

Take `Cc1nnc(-c2cccc3nc4n(c23)C(C)CCCCNC(=O)c2cccc(c2)C(=O)N4)o1` (stereo not drawn): the ring closure, isolated yield in series [1] (from Cc1nnc(-c2cccc3nc(NC(=O)c4cccc(C(=O)O)c4)n(C(C)CCCCN)c23)o1, HATU/DIEA, THF, 0.5 mM, 25.0 °C, 16.0 h, 2 steps) amounted to 13%.

`O=C1NCCCCCn2c(nc3ccccc32)NC(=O)c2cccc1c2` [Example 2, 1^1H-2,6-diaza-1(2,1)-benzo[d]imidazola-4(1,3)-benzenacycloundecaphane-3,5-dione] showed a ring closure, isolated yield in series [1] (from NCCCCCn1c(NC(=O)c2cccc(C(=O)O)c2)nc2ccccc21, HATU/DIEA, DMF, 51.0 mM, 25.0 °C, 16.0 h) of 2%. For the same compound, the IC50 in series [2] (setting [6]) was determined as 3 nM; in series [3] (Homo sapiens, 0.5 h, read-out: IC50 (nM) in phospho-p38 cell assay) it was 200 nM. The compound also had a solubility in series [4] of 0.5 µM (≈ 0.174 µg/mL).

`C[C@@H]1CCCCNC(=O)c2cccc(c2)C(=O)Nc2nc3cccc(S(=O)(=O)N(C)C)c3n21` [Example 46, (R,E)-N,N,11-trimethyl-3,5-dioxo-1^2,1^3-dihydro-1^1H-2,6-diaza-1(2,1)-benzo[d]imidazola-4(1,3)-benzenacycloundecaphane-1^7-sulfonamide] showed a ring closure, yield after HPLC in series [5] (from C[C@H](CCCCN)n1c(NC(=O)c2cccc(C(=O)O)c2)nc2cccc(S(=O)(=O)N(C)C)c21, HATU/DIEA, THF, 0.5 mM, 50.0 °C, 16.0 h) of 24%. In series [2] (setting [6]), the IC50 was 2 nM. Further, in series [4], the solubility is 10 µM (≈ 4.7 µg/mL).

Compound `Cc1nnc(-c2cccc3nc4n(c23)[C@H](C)CCCCNC(=O)c2cccc(c2)C(=O)N4)n1C` [Example 57, (R,E)-1^7-(4,5-dimethyl-4H-1,2,4-triazol-3-yl)-11-methyl-1^2,1^3-dihydro-1^1H-2,6-diaza-1(2,1)-benzo[d]imidazola-4(1,3)-benzenacycloundecaphane-3,5-dione] had a ring closure, yield after HPLC in series [5] (from Cc1nnc(-c2cccc3nc(NC(=O)c4cccc(C(=O)O)c4)n([C@H](C)CCCCN)c23)n1C, HATU/DIEA, THF, 0.5 mM, 50.0 °C, 23.0 h) of 31%. The IC50 in series [2] (setting [6]) amounted to 3 nM; in series [2] (setting [7]), 6 nM. This compound registered a solubility in series [4] of 95 µM (≈ 43.5 µg/mL).

Consider `C[C@@H]1CCCCNC(=O)c2cccc(c2)C(=O)Nc2nc3cccc(N4CCN(C)C4=O)c3n21` [Example 65, (R,E)-11-methyl-1^7-(3-methyl-2-oxoimidazolidin-1-yl)-1^2,1^3-dihydro-1^1H-2,6-diaza-1(2,1)-benzo[d]imidazola-4(1,3)-benzenacycloundecaphane-3,5-dione], for which the ring closure, isolated yield in series [1] (from C[C@H](CCCCN)n1c(NC(=O)c2cccc(C(=O)O)c2)nc2cccc(N3CCN(C)C3=O)c21, HATU/DIEA, THF, 0.5 mM, 25.0 °C, 96.0 h) was found to be 15%. Further, in series [2] (setting [6]), the IC50 is 4 nM. The solubility in series [4] was 95 µM (≈ 43.8 µg/mL).

On to `C[C@@H]1CCCCNC(=O)c2cccc(c2)C(=O)Nc2nc3cccc(-c4cn(C)nn4)c3n21` [Example 66, (R,E)-11-methyl-1^7-(1-methyl-1H-1,2,3-triazol-4-yl)-1^2,1^3-dihydro-1^1H-2,6-diaza-1(2,1)-benzo[d]imidazola-4(1,3)-benzenacycloundecaphane-3,5-dione], for which the ring closure, yield after HPLC in series [5] (from C[C@H](CCCCN)n1c(NC(=O)c2cccc(C(=O)O)c2)nc2cccc(-c3cn(C)nn3)c21, HATU/DIEA, THF, 0.48 mM, 25.0 °C, 78.0 h) was determined as 5%. Further, in series [2] (setting [6]), the IC50 stood at 3 nM. In series [4], the solubility was 5.2 µM (≈ 2.31 µg/mL).

In turn, `O=C1NCCCCCn2c(nc3cc(F)ccc32)NC(=O)c2cccc1c2` [Example 99, (E)-1^5-fluoro-1^2,1^3-dihydro-1^1H-2,6-diaza-1(2,1)-benzo[d]imidazola-4(1,3)-benzenacycloundecaphane-3,5-dione] showed a ring closure, yield after HPLC in series [5] (from NCCCCCn1c(NC(=O)c2cccc(C(=O)O)c2)nc2cc(F)ccc21, HATU/DIEA, THF, 0.5 mM, 50.0 °C, 16.0 h) of 16%. Further, in series [2] (setting [6]), the IC50 amounted to 4 nM. In series [4], the solubility is 0.2 µM (≈ 0.0733 µg/mL).

As for `CN1CCN(Cc2ccc3c(c2)nc2n3CCCCCNC(=O)c3cccc(n3)C(=O)N2)CC1` [Example 102, (E)-1^5-((4-methylpiperazin-1-yl)methyl)-1^2,1^3-dihydro-1^1H-2,6-diaza-1(2,1)-benzo[d]imidazola-4(2,6)-pyridinacycloundecaphane-3,5-dione], in series [5] (from CN1CCN(Cc2ccc3c(c2)nc(NC(=O)c2cccc(C(=O)O)n2)n3CCCCCN)CC1, T3P/DIEA, DMF, 50.0 mM, 25.0 °C, 1.5 h), the ring closure, yield after HPLC is 30%. The IC50 in series [2] (setting [6]) turned out to be 9 nM. Besides, in series [4], the solubility came out at 88 µM (≈ 40.6 µg/mL).

For `CCCn1c(NC(=O)c2cccc(C(N)=O)c2)nc2ccccc21` [takinib, N-(1-propyl-1H-benzo[d]imidazol-2-yl)isophthalamide, reference compound], the half-inhibitory concentration (IC50) in series [2] (setting [6]) was 17 nM; in series [2] (setting [7]), 280 nM. Moreover, the “IC50 (nM) in phospho-p38 cell assay” value in series [3] is “inactive”. This compound registered a solubility in series [4] of 0.9 µM (≈ 0.29 µg/mL).
